Assay results as given in patent publication US10774053B2, “HIV protease inhibitors” (Gilead Sciences, Inc., priority 2017, dated 2020).
Like-named read-outs stand apart in the source and are kept apart here.

What was measured:
[1] = system: HIV-1 (IIIB) in MT-4 cells; assay: microbe, parasite or virus in culture; assay type: cell-based
recombinant human BACE-1 = recombinant human BACE-1 (Homo sapiens (Human), UniProt P56817); assay: Beta-secretase (BACE) inhibition assay, fluorogenic enzymatic assay; assay type: biochemical
Experimental: Beta-Secretase (BACE) Inhibition Assay
Inhibitory potency against β-secretase (BACE) was measured using an enzymatic assay with a fluorogenic readout. 50 nM of recombinant human BACE-1 (R&D Systems) and test compound at one of various concentrations were added to a reaction buffer containing 20 mM sodium acetate at pH 4.8, with 0.06% Triton X-100, and 1% DMSO. […] The total volume of the assay solution was 100 μL. […] The slopes of the progress curves were the measure of reaction rates. Reaction rates were plotted as a function of inhibitor concentration, and the data were fit with a four-parameter logistic fit using Graphpad PRISM software to yield IC50 values.

[2] = Liver microsomal stability, human liver microsomes; settings: human, liver microsomes
Experimental: Liver Microsomal Stability Protocol
Test compounds and one control compound (verapamil) were tested in 3 different species in duplicate sets.
Test compound concentration: 1 uM; Protein concentration: 0.5 mg/mL (for dog, rat, and human liver microsomes); Cofactor: NADPH-Regenerating system (NRS) solution; Time-points: 2, 12, 25, 45, and 65 minutes.
Reaction Composition (in Each Incubation Well) Contains:
At an incubation temperature of 37° C., the reaction was started with addition of NADPH Regeneration System, at each time point, 25 uL of the reaction mixture was removed and added to a plate with 225 uL quenching solution (50% MeOH, 25% ACN, 25% H2O, and 200 nM labetalol as internal standard). After plates were vortexed, they were centrifuged for 30 minutes to remove proteins. About 100 μL supernatant was removed to a new plate and diluted with 150 μL water. About 20 μL of the mixture was injected into LC/MS/MS system to monitor the compound's response. In vitro measured t1/2 was used to calculate Clint values.

[3] = system: single replication cycle recombinant virus containing the protease and reverse transcriptase coding regions of HIV-1 from a patient blood sample; assay type: cell-based
From the text: Resistance testing was done by Monogram Biosciences using their proprietary PhenoSense HIV assay.

[4] = MT-4 cells, HIV-1, read-out: MT4 EC50
[5] = Human immunodeficiency virus 1, IIIB, MT4, MT-4 cells, HIV-1, read-out: MT4 EC50

Chain of recombinant human BACE-1 (P56817 46-501): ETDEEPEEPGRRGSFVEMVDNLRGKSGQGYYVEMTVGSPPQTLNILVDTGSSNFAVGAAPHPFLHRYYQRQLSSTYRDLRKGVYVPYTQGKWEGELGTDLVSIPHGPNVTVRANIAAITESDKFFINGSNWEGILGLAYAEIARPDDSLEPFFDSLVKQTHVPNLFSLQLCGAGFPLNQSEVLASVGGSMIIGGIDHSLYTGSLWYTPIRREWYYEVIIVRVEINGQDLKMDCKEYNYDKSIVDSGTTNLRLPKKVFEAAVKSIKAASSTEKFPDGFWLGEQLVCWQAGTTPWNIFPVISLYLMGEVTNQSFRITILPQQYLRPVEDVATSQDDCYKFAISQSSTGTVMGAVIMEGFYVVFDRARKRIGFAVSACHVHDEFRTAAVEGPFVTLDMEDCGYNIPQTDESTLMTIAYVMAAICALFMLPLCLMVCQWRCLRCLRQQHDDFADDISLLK

SMILES | IC50 (recombinant human BACE-1) [nM] | EC50 [1, 5] [nM] | half-life at 1 uM [2] [h] | other results
CC(C)(C)C[C@]1(c2ccc(-c3cnn(C(F)F)c3)cc2)NC(=N)N([C@H](COC(=O)N[C@@H]2CC2(F)F)c2ccc(Cl)c(-n3ncnc3C(F)F)c2)C1=O (single isomer, unassigned) [Compound 335] | > 100000 |  |  | EC50 [1, 4]: 5.59 nM
CC1(NC(=O)OC[C@H](c2ccc(Cl)c(-c3ncn[nH]3)c2)N2C(=N)N[C@](CC(C)(C)C(F)(F)F)(c3ccc(-c4cnn(C(F)F)c4)cc3)C2=O)CC1 [Compound 32] | > 100000 | 69.2 |  | 
CC(C)(C)C[C@]1(c2ccc(-c3cnn(C(F)F)c3)cc2)NC(=N)N([C@H](COC(=O)NC(C)(C)C(F)F)c2ccc(Cl)c(-c3ncnn3C(F)F)c2)C1=O [Compound 90] | > 100000 | 12.2 |  | 
CC(C)(C)C[C@]1(c2ccc(-c3cnn(C(F)F)c3)cc2)NC(=N)N([C@H](COC(=O)NC2(C(F)(F)F)CC2)c2ccc(Cl)c(-c3ncnn3C(F)F)c2)C1=O [Compound 113] | > 100000 | 7.75 |  | 
CC(C)(F)C[C@]1(c2ccc(-c3cnn(C4CC4)c3)cc2)NC(=N)N([C@H](COC(=O)NC2(C(F)(F)F)CC2)c2ccc(Cl)c(-c3ncnn3C(F)F)c2)C1=O [Compound 131] | > 100000 | 20.8 | ≥ 6.58 | 
CC(C)(C)C[C@]1(c2ccc(-c3cnn(C4CC4)n3)cc2)NC(=N)N([C@H](COC(=O)NC2(C(F)(F)F)CC2)c2ccc(Cl)c(-c3ncnn3C(F)F)c2)C1=O [Compound 146] | > 100000 | 10.3 | ≥ 6.58 | 
CC(C)(C[C@]1(c2ccc(-c3cnn(C4CC4)n3)cc2)NC(=N)N([C@H](COC(=O)NC2(C(F)(F)F)CC2)c2ccc(Cl)c(-c3ncnn3C(F)F)c2)C1=O)C(F)(F)F [Compound 152] | > 100000 | 13 | ≥ 6.58 | 
CC(C)(C[C@]1(c2ccc(-c3cnn(C4CC4)n3)cc2)NC(=N)N([C@H](COC(=O)NC2(C(F)F)CC2)c2ccc(Cl)c(-c3ncnn3C(F)F)c2)C1=O)C(F)(F)F [Compound 155] | > 100000 | 9.87 | ≥ 6.58 | 
CC(C)(C)C[C@]1(c2ccc(-c3cnn(C(F)F)c3)cc2)NC(=N)N([C@H](COC(=O)NC2(C(F)(F)F)CC2)c2ccc(Cl)c(-n3ncnc3C(F)F)c2)C1=O [Compound 177] | > 100000 | 9.81 |  | 
CC(C)(C)C[C@]1(c2ccc(-c3cnn(C(F)F)c3)cc2)NC(=N)N([C@H](COC(=O)NC(C)(C)C(F)F)c2ccc(Cl)c(-n3ncnc3C(F)F)c2)C1=O [Compound 185] | > 100000 | 12.6 |  | 
CC(C)(F)C[C@]1(c2ccc(-c3cnn(C(F)F)c3)cc2)NC(=N)N([C@H](COC(=O)NC2(C(F)(F)F)CC2)c2ccc(Cl)c(-n3ncnc3C(F)F)c2)C1=O [Compound 194] | > 100000 | 14.8 | ≥ 6.58 | 
CC(C)(C)C[C@]1(c2ccc(-c3cnn(C(F)F)c3)cc2F)NC(=N)N([C@H](COC(=O)NC2(C(F)(F)F)CC2)c2ccc(Cl)c(-n3ncnc3C(F)F)c2)C1=O [Compound 195] | > 100000 | 10.5 | ≥ 6.58 | 
CC(C)(C)C[C@]1(c2ccc(-c3ccnn3C(F)F)cc2)NC(=N)N([C@H](COC(=O)NC2(C(F)(F)F)CC2)c2ccc(Cl)c(-n3ncnc3C(F)F)c2)C1=O [Compound 212] |  |  |  | EC50 [1, 4]: 11.9 nM; IC50 (recombinant human BACE-1; 50 nM recombinant human BACE-1, pH 4.8, read-out: BACE IC50): > 100000 nM
CC(C)(C)C[C@]1(c2ccc(-c3cnn(C(F)F)c3)cc2)NC(=N)N([C@H](COC(=O)NCC(F)(F)F)c2ccc(Cl)c(-n3ncnc3C(F)F)c2)C1=O [Compound 218] | > 100000 | 9.89 |  | 
CC(C)(C)C[C@]1(c2ccc(-c3cnn(C4CC4)n3)cc2)NC(=N)N([C@H](COC(=O)NC2(C(F)(F)F)CC2)c2ccc(Cl)c(-n3ncnc3C(F)F)c2)C1=O [Compound 223] | > 100000 | 13.1 | ≥ 6.58 | 
CC(C)(C)C[C@]1(c2ccc(-c3cnn(C(F)F)c3)cc2)NC(=N)N([C@H](COC(=O)NC2(C(F)(F)F)CC2)c2ccc(Cl)c(-n3cncn3)c2)C1=O [Compound 236] | > 100000 | 10.6 | ≥ 6.58 | 
CC(C)(C)C[C@]1(c2ccc(-c3cnn(C(F)F)c3)cc2)NC(=N)N([C@H](COC(=O)NC(C)(C)C(F)(F)F)c2ccc(Cl)c(-n3cncn3)c2)C1=O [Compound 242] | > 100000 | 6.83 | ≥ 6.58 | 
CN(C(=O)OC[C@H](c1ccc(Cl)c(-n2cncn2)c1)N1C(=N)N[C@](CC(C)(C)C)(c2ccc(-c3cnn(C4CC4)c3)cc2)C1=O)C1CC1 [Compound 244] | > 100000 | 7.66 |  | 
CC(C)(C[C@]1(c2ccc(-c3cnn(C4CC4)n3)cc2)NC(=N)N([C@H](COC(=O)NC2(C(F)(F)F)CC2)c2ccc(Cl)c(-n3ncnc3C(F)F)c2)C1=O)C(F)(F)F [Compound 270] | > 100000 | 19.1 | ≥ 6.58 | 
CC(C)(C[C@]1(c2ccc(-c3cnn(C4CC4)n3)cc2)NC(=N)N([C@H](COC(=O)NC2(C(F)F)CC2)c2ccc(Cl)c(-n3ncnc3C(F)F)c2)C1=O)C(F)(F)F [Compound 271] | > 100000 | 12.6 |  | 
CC(C)(C)C[C@]1(c2ccc(-c3cnn(S(C)(=O)=O)c3)cc2F)NC(=N)N([C@H](COC(=O)NC2(C(F)(F)F)CC2)c2ccc(Cl)c(-n3ncnc3C(F)F)c2)C1=O [Compound 286] | > 100000 | 9.61 |  | 
C[C@H](NC(=O)OC[C@H](c1ccc(Cl)c(-n2ncnc2C(F)F)c1)N1C(=N)N[C@](CC(C)(C)C)(c2ccc(-c3cnn(C(F)F)c3)cc2)C1=O)C(F)(F)F [Compound 311] | > 100000 | 7.01 | ≥ 6.58 | 
CC(C)(C)C[C@]1(c2ccc3c(C(F)F)nccc3c2)NC(=N)N([C@H](COC(=O)NC2(C(F)(F)F)CC2)c2ccc(Cl)c(-n3ncnc3C(F)F)c2)C1=O [Compound 348] | > 100000 | 7.46 |  | 
Cn1c(=O)ccc2cc([C@@]3(CC(C)(C)C)NC(=N)N([C@H](COC(=O)NC4(C(F)(F)F)CC4)c4ccc(Cl)c(-n5ncnc5C(F)F)c4)C3=O)ccc21 [Compound 349] | > 100000 |  |  | EC50 ([1]; Human immunodeficiency virus 1, IIIB, MT4, read-out: MT4 EC50 (nM)): 36 nM
C[C@H](C(=O)NC[C@H](c1ccc(Cl)c(-n2ncnc2C(F)F)c1)N1C(=N)N[C@](CC(C)(C)C(F)(F)F)(c2ccc(-c3cnn(C4CC4)n3)cc2)C1=O)C(F)(F)F [Compound 389] | > 100000 | 12.2 | ≥ 6.58 | 
COC(=O)N[C@H](C(=O)N[C@@H](Cc1ccccc1)[C@@H](O)CN(Cc1ccc(-c2ccccn2)cc1)NC(=O)[C@@H](NC(=O)OC)C(C)(C)C)C(C)(C)C [atazanavir, methyl N-[(2S)-1-[2-[(2S,3S)-2-hydroxy-3-[[(2S)-2-(methoxycarbonylamino)-3,3-dimethylbutanoyl]amino]-4-phenylbutyl]-2-[(4-pyridin-2-ylphenyl)methyl]hydrazinyl]-3,3-dimethyl-1-oxobutan-2-yl]carbamate] |  |  | 0.433 to 1.78 | Fold change in EC50 ([3]; Resistance mutations D30N L33F N88D L90M): 5.27; Fold change in EC50 ([3]; Resistance mutations L10F M46I I47V I50V I54V G73S I84V L90M): 30.0; Fold change in EC50 ([3]; Resistance mutations L10F M46L I54V V82A I84V): >101; Fold change in EC50 ([3]; Resistance mutations L10F V32I M46I I47V I50V I54L I84V): 5.67; Fold change in EC50 ([3]; Resistance mutations L10I L33F G48V I50L I54V/I V82A): 87.0; Fold change in EC50 ([3]; Resistance mutations L10I L33F/L G48V G73S V82A): >101; Fold change in EC50 ([3]; Resistance mutations L10I M46I I50V): 1.99; Fold change in EC50 ([3]; Resistance mutations L10I V32I L33F M46L I54L I84V L89V): 97.0; Fold change in EC50 ([3]; Resistance mutations L10I V32I M46I I47V G48V I54M V82T L90M): 11.0; Fold change in EC50 ([3]; Resistance mutations L10I V32I M46I I47V I50V I54L L90M): 36.0; Fold change in EC50 ([3]; Resistance mutations L10V/L M46I I50L V82A): >101; Fold change in EC50 ([3]; Resistance mutations L33F M46I I50V L76V): 1.91
